Patent US20250074913A1, “PYRAZOLE DERIVATIVES AS STING AGONISTS” (Hoffmann-La Roche Inc., priority 2022, published 2025)

Each compound was assayed on interferon regulatory factor (IRF) pathway in THP1-Dual™ cells (assay: THP1-Dual reporter gene assay (Agonist_THP1_EC50)). Details: Homo sapiens, 20-24 hrs compound treatment, Lucia luciferase (IRF) readout.
Type: cell-based
Source text: This is the cellular reporter assay to evaluate compounds' agonism to interferon regulatory factor (IRF) pathway in THP1-Dual™ cells (InvivoGen, cat number thpd-nfis). THP1-Dual™ cells were derived from the human THP-1 monocyte cell line by stable integration lucia luciferase gene, a new secreted luciferase reporter gene, under the control of an ISG54 (interferon-stimulated gene) minimal promoter in conjunction with five interferon (IFN)-stimulated response elements. As a result, THP1-Dual™ cells allow the study of the IRF pathway, by assessing the activity of Lucia luciferase. Lucia luciferase protein is readily measurable in the cell culture supernatant when using QUANTI-Luc™ (InvivoGen, cat: rep-qlcg-500).
After 20-24 hrs compound treatment in THP1-Dual cells, the compounds' agonism to IRF pathway and cell toxicity were tested by measuring luminescence and OD 450 on an Envision plate reader.
On the day of experiment, 30 μL of test medium (RPMI 1640, 2 mM L-glutamine, 25 mM HEPES, […] heat-inactivated fetal bovine serum) was dispensed in a white 384-well plate (Grenier, cat: 781098) containing the serially diluted compounds (final 1% DMSO) transferred by the Echo550 machine. Then 30 μL of cell suspension (˜33,000 cells, 1.1×10^6 cells/mL) per well was added immediately by thermo multidrop combi dispenser for incubation 20-24 h at 37° C., […]. At the end of the incubation, 10 μL of cellular supernatant was transferred to proxiplate 384-plus plate for IRF detection, and then 10 μL of QUANTI-Luc™ Gold solution was added to the plate that proceeded with the measurement immediately. To detect cell viability, 30 μL of the CCK-8 working solution (Dojindo Molecular Technologies, cat: CK04-20) was added to the cell plate, which was Incubated for 2 hrs in the incubator to measure the absorbance at 450 nm using Envision.

| EC50 [nM] | SMILES |
| --- | --- |
| 202 | CCn1nc(C)c(O)c1-c1n[nH]c(-c2nc(C(N)=O)n3cc(C)ncc23)n1 [Example 1, 1-[3-(2-ethyl-4-hydroxy-5-methyl-pyrazol-3-yl)-1H-1,2,4-triazol-5-yl]-6-methyl-imidazo[1,5-a]pyrazine-3-carboxamide] |
| 606 | CCn1nc(C)c(O)c1-c1n[nH]c(-c2cc(C(N)=O)n3cc(C)ncc23)n1 [Example 3, 8-[3-(2-ethyl-4-hydroxy-5-methyl-pyrazol-3-yl)-1H-1,2,4-triazol-5-yl]-3-methyl-pyrrolo[1,2-a]pyrazine-6-carboxamide] |
| 829 | CCn1nc(C)c(O)c1-c1nc(-c2nc(C(N)=O)n3cc(C)ncc23)co1 [Example 9, 1-[2-(2-ethyl-4-hydroxy-5-methyl-pyrazol-3-yl)oxazol-4-yl]-6-methyl-imidazo[1,5-a]pyrazine-3-carboxamide] |
| 419 | CCn1nc(C)c(O)c1-c1nc(-c2nc(C(N)=O)cc3c2cnn3C)c(C(F)F)o1 [Example 10, 4-[5-(difluoromethyl)-2-(2-ethyl-4-hydroxy-5-methyl-pyrazol-3-yl)oxazol-4-yl]-1-methyl-pyrazolo[4,3-c]pyridine-6-carboxamide] |
| 548 | CCn1nc(C)c(O)c1-c1n[nH]c(-c2nc(C(N)=O)n3cc(Cl)ncc23)n1 [Example 18, 6-chloro-1-[3-(2-ethyl-4-hydroxy-5-methyl-pyrazol-3-yl)-1H-1,2,4-triazol-5-yl]imidazo[1,5-a]pyrazine-3-carboxamide] |
| 408 | CCn1nc(C)c(O)c1-c1n[nH]c(-c2nc(C(N)=O)n3cc(C)ccc23)n1 [Example 19, 1-[3-(2-ethyl-4-hydroxy-5-methyl-pyrazol-3-yl)-1H-1,2,4-triazol-5-yl]-6-methyl-imidazo[1,5-a]pyridine-3-carboxamide] |
| 283 | CCn1nc(C)c(O)c1-c1n[nH]c(-c2cc(C(N)=O)c3cc(C)ncn23)n1 [Example 20, 7-[3-(2-ethyl-4-hydroxy-5-methyl-pyrazol-3-yl)-1H-1,2,4-triazol-5-yl]-3-methyl-pyrrolo[1,2-c]pyrimidine-5-carboxamide] |
| 141 | CCn1nc(C)c(O)c1-c1nc(-n2nc(C(N)=O)c3cc(C)ncc32)co1 [Example 21, 1-[2-(2-ethyl-4-hydroxy-5-methyl-pyrazol-3-yl)oxazol-4-yl]-5-methyl-pyrazolo[3,4-c]pyridine-3-carboxamide] |
| 82 | CCn1nc(C)c(O)c1-c1n[nH]c(-n2nc(C(N)=O)c3cc(C)ncc32)n1 [Example 22, 1-[3-(2-ethyl-4-hydroxy-5-methyl-pyrazol-3-yl)-1H-1,2,4-triazol-5-yl]-5-methyl-pyrazolo[3,4-c]pyridine-3-carboxamide] |
| 275 | Cc1nn(CCn2ccnc2)c(-c2n[nH]c(-c3nc(C(N)=O)cc4c3cnn4C)n2)c1O [Example 23, 4-[3-[4-hydroxy-2-(2-imidazol-1-ylethyl)-5-methyl-pyrazol-3-yl]-1H-1,2,4-triazol-5-yl]-1-methyl-pyrazolo[4,3-c]pyridine-6-carboxamide] |
| 127 | Cc1nn(CCCC#N)c(-c2n[nH]c(-c3nc(C(N)=O)cc4c3cnn4C)n2)c1O [Example 24, 4-[3-[2-(3-cyanopropyl)-4-hydroxy-5-methyl-pyrazol-3-yl]-1H-1,2,4-triazol-5-yl]-1-methyl-pyrazolo[4,3-c]pyridine-6-carboxamide] |
| 50 | Cc1nn(CCC#N)c(-c2n[nH]c(-c3nc(C(N)=O)cc4c3cnn4C)n2)c1O [Example 25, 4-[3-[2-(2-cyanoethyl)-4-hydroxy-5-methyl-pyrazol-3-yl]-1H-1,2,4-triazol-5-yl]-1-methyl-pyrazolo[4,3-c]pyridine-6-carboxamide] |
| 340 | CCn1nc(C)c(O)c1-c1n[nH]c(-c2nc(C(N)=O)n3cc(C(F)F)ncc23)n1 [Example 26, 6-(difluoromethyl)-1-[3-(2-ethyl-4-hydroxy-5-methyl-pyrazol-3-yl)-1H-1,2,4-triazol-5-yl]imidazo[1,5-a]pyrazine-3-carboxamide] |
| 292 | CCn1nc(C)c(O)c1-c1noc(-c2cc(C(N)=O)c3cc(C)ncn23)n1 [Example 27, 7-[3-(2-ethyl-4-hydroxy-5-methyl-pyrazol-3-yl)-1,2,4-oxadiazol-5-yl]-3-methyl-pyrrolo[1,2-c]pyrimidine-5-carboxamide] |
| 134 | CCn1nc(C)c(O)c1-c1nc(-c2c(F)c(C(N)=O)n3cc(C)ncc23)co1 [Example 28, 8-[2-(2-ethyl-4-hydroxy-5-methyl-pyrazol-3-yl)oxazol-4-yl]-7-fluoro-3-methyl-pyrrolo[1,2-a]pyrazine-6-carboxamide] |
| 618 | CCn1nc(C)c(O)c1-c1nc(-n2cc(C(N)=O)c3cc(C)ncc32)co1 [Example 29, 1-[2-(2-ethyl-4-hydroxy-5-methyl-pyrazol-3-yl)oxazol-4-yl]-5-methyl-pyrrolo[2,3-c]pyridine-3-carboxamide] |
| 321 | Cc1cn2c(C(N)=O)c(F)c(-c3nc(-c4c(O)c(C)nn4CCC#N)n[nH]3)c2cn1 [Example 30, 8-[3-[2-(2-cyanoethyl)-4-hydroxy-5-methyl-pyrazol-3-yl]-1H-1,2,4-triazol-5-yl]-7-fluoro-3-methyl-pyrrolo[1,2-a]pyrazine-6-carboxamide] |
| 36 | Cc1cc2c(C(N)=O)nn(-c3nc(-c4c(O)c(C)nn4CC4CC4)n[nH]3)c2cn1 [Example 32, 1-[3-[2-(cyclopropylmethyl)-4-hydroxy-5-methyl-pyrazol-3-yl]-1H-1,2,4-triazol-5-yl]-5-methyl-pyrazolo[3,4-c]pyridine-3-carboxamide] |
| 135 | Cc1cc2c(C(N)=O)nn(-c3nc(-c4c(O)c(C)nn4C4CC4)n[nH]3)c2cn1 [Example 33, 1-[3-(2-cyclopropyl-4-hydroxy-5-methyl-pyrazol-3-yl)-1H-1,2,4-triazol-5-yl]-5-methyl-pyrazolo[3,4-c]pyridine-3-carboxamide] |
| 79 | Cc1nn(CCn2nccn2)c(-c2n[nH]c(-c3nc(C(N)=O)cc4c3cnn4C)n2)c1O [Example 35, 4-[3-[4-hydroxy-5-methyl-2-[2-(triazol-2-yl)ethyl]pyrazol-3-yl]-1H-1,2,4-triazol-5-yl]-1-methyl-pyrazolo[4,3-c]pyridine-6-carboxamide] |
| 240 | Cc1nn(CCn2ccnn2)c(-c2n[nH]c(-c3nc(C(N)=O)cc4c3cnn4C)n2)c1O [Example 36, 4-[3-[4-hydroxy-5-methyl-2-[2-(triazol-1-yl)ethyl]pyrazol-3-yl]-1H-1,2,4-triazol-5-yl]-1-methyl-pyrazolo[4,3-c]pyridine-6-carboxamide] |
| 14 | Cc1nn(CCC(F)F)c(-c2n[nH]c(-c3nc(C(N)=O)cc4c3cnn4C)n2)c1O [Example 37, 4-[3-[2-(3,3-difluoropropyl)-4-hydroxy-5-methyl-pyrazol-3-yl]-1H-1,2,4-triazol-5-yl]-1-methyl-pyrazolo[4,3-c]pyridine-6-carboxamide] |
| 225 | Cc1nn(CCn2cncn2)c(-c2n[nH]c(-c3nc(C(N)=O)cc4c3cnn4C)n2)c1O [Example 39, 4-[3-[4-hydroxy-5-methyl-2-[2-(1,2,4-triazol-1-yl)ethyl]pyrazol-3-yl]-1H-1,2,4-triazol-5-yl]-1-methyl-pyrazolo[4,3-c]pyridine-6-carboxamide] |
| 48 | Cc1cc2c(C(N)=O)nn(-c3nc(-c4c(O)c(C)nn4CCCF)n[nH]3)c2cn1 [Example 41, 1-[3-[2-(3-fluoropropyl)-4-hydroxy-5-methyl-pyrazol-3-yl]-1H-1,2,4-triazol-5-yl]-5-methyl-pyrazolo[3,4-c]pyridine-3-carboxamide] |
| 45 | COCCn1nc(C)c(O)c1-c1n[nH]c(-n2nc(C(N)=O)c3cc(C)ncc32)n1 [Example 42, 1-[3-[4-hydroxy-2-(2-methoxyethyl)-5-methyl-pyrazol-3-yl]-1H-1,2,4-triazol-5-yl]-5-methyl-pyrazolo[3,4-c]pyridine-3-carboxamide] |
| 15 | CCCCn1nc(C)c(O)c1-c1n[nH]c(-n2nc(C(N)=O)c3cc(C)ncc32)n1 [Example 43, 1-[3-(2-butyl-4-hydroxy-5-methyl-pyrazol-3-yl)-1H-1,2,4-triazol-5-yl]-5-methyl-pyrazolo[3,4-c]pyridine-3-carboxamide] |
| 46 | COCCCn1nc(C)c(O)c1-c1n[nH]c(-n2nc(C(N)=O)c3cc(C)ncc32)n1 [Example 44, 1-[3-[4-hydroxy-2-(3-methoxypropyl)-5-methyl-pyrazol-3-yl]-1H-1,2,4-triazol-5-yl]-5-methyl-pyrazolo[3,4-c]pyridine-3-carboxamide] |
| 97 | Cc1cc2c(C(N)=O)nn(-c3nc(-c4c(O)c(C)nn4CCc4ccncc4)n[nH]3)c2cn1 [Example 46, 1-[3-[4-hydroxy-5-methyl-2-[2-(4-pyridyl)ethyl]pyrazol-3-yl]-1H-1,2,4-triazol-5-yl]-5-methyl-pyrazolo[3,4-c]pyridine-3-carboxamide] |
